Data reported in patent US20260242360A1, “Novel Compound, and Pharmaceutical Composition for Prevention or Treatment of Cancer or Tumors Comprising Same” (Daewoong Pharmaceutical Co., Ltd., priority 2023, published 2026).

Columns and labels:
Type in all cases: cell-based
NCI-H28 cells = experiment: Cell growth inhibition test (CellTiter-Glo), NCI-H28; conditions: Homo sapiens, NCI-H28 cell line
Protocol: (§1) The cell growth for the compounds prepared in Examples was measured by CellTiter-Glo® Luminescednt Cell Viability (Promega, Catalog #G7571) method using NCI-H226 (addexbio), NCI-H28 (Korea Cell Line Bank) cell lines. This evaluation method is a method in which when luciferase enzyme is activated by ATP flowing out from living cells, it reacts with a luciferin substrate, and the enzyme activity at this time is measured to confirm cell viability.
(§2) Specifically, NCI-H226, and NCI-H28 cells were prepared in 100 μL of cell culture medium (RPMI medium, 10% FBS, 1% P/S, 4.5 g/L D-Glucose, 2.383 g/L HEPES Buffer, L-Glutamine, 1.5 g/L Sodium Bicarbonate, 110 mg/L Sodium pyruvate) in a white clear bottom 96-well microplate. The prepared plate was incubated in a 5% CO2 incubator at 37° C. for 24 hours, and then the previously prepared compounds of Examples were finally treated at concentrations of 0.0005, 0.005, 0.05, 0.5 and 5 μM, which was repeated three times for all treatment solutions.
(§3) The plates treated with the compounds of Examples were incubated in a 5% CO2 incubator at 37° C. 100 μL/well of the substrate aqueous solution containing luciferin was added to a white clear-bottom 96 well microplate, thereby initiating an enzyme reaction. The reaction was performed at room temperature in the dark for 10 minutes, and the luminescence was measured using a Flexstation3 multi-mode microplate reader. In accordance with the instructions for the CellTiter-Glo™ Luminescednt Cell Viability, the luciferase enzyme activity, which represents the amount of ATP, was measured by a chemiluminescence method, and the inhibitory activity of the compounds according to the present disclosure was calculated. The results of each compound were analyzed using Microsoft Excel, and the IC50 values were calculated using GraphPad Prism software.

[1] = system: transcription factor TEAD; experiment: Activity inhibition test of transcription factor TEAD (ONE-Glo luciferase assay, Hippo Pathway TEAD reporter-MCF7 cell line); conditions: Homo sapiens; TEAD Reporter-MCF7 cells, 24 hours treatment, luciferase luminescence
Protocol: The transcription factor TEAD activity of the compounds prepared in Examples was measured by the ONE-Glo™ Luciferase assay (Promega, Catalog #E6110) method using the Hippo Pathway TEAD reporter-MCF7 recombinant cell line (BPS Bioscience, Catalog #60618).
Specifically, the TEAD Reporter-MCF7 cell line contains the firefly luciferase gene whose expression is regulated under the control of TEAD response elements in the MCF7, which is a human breast cancer cell line. In the cell line, a non-phosphorylated YAP/TAZ exists in the nucleus in a non-stressed condition, which continuously induces expression of the luciferase reporter.
TEAD Reporter-MCF7 cells were prepared in 100 μL of cell culture medium (MEM medium, 10% FBS, 1% P/S, 400 μg/mL Geneticin, 1% […], 1 mM NA pyruvate, 10 μg/mL Insulin) in a white clear bottom 96-well microplate. The prepared plate was incubated in a 5% CO2 incubator at 37° C. for 24 hours, and then the previously prepared compounds of Examples were finally treated at concentrations of 0.0005, 0.005, 0.05, 0.5 and 5 μM, which were repeated three times for all treatment solutions. The plates treated with the compounds of Examples were incubated in a 5% CO2 incubator at 37° C. for 24 hours. 100 μL/well of the substrate aqueous solution containing luciferin was added to a white clear-bottom 96 well microplate, thereby initiating an enzyme reaction. The reaction was performed at room temperature for 5 minutes, and the luminescence (integration time 1000 ms) was measured using a Flexstation3 multi-mode microplate reader. In accordance with the instructions for the ONE-Glo™ Luciferase Assay, the luciferase enzyme activity, which represents the activity of the transcription factor TEAD, was measured by a chemiluminescence method, and the inhibitory activity of the compound according to the present disclosure was calculated. The results of each compound were analyzed using Microsoft Excel, and the IC50 values were calculated by GraphPad Prism software.

NCI-H226 cells = experiment: Cell growth inhibition test (CellTiter-Glo), NCI-H226; conditions: Homo sapiens, NCI-H226 cell line
Protocol: as §1, §2, §3

IC50 (NCI-H28 cells) [nM] | IC50 [1] [nM] | IC50 (NCI-H226 cells) [nM] | SMILES
1360 | 23 | 7.6 | C=CC(=O)Nc1cc(-c2ccn(C)n2)c2[nH]c(-c3ccc(F)cc3)cc2c1 [Example 32, N-(2-(4-fluorophenyl)-7-(1-methyl-1H-pyrazol-3-yl)-1H-indol-5-yl)acrylamide]
2540 | 48 | 7.6 | C=CC(=O)Nc1cc(-c2cn(CC)cn2)c2[nH]c(-c3ccc(F)cc3)cc2c1 [Example 51, N-(7-(1-ethyl-1H-imidazol-4-yl)-2-(4-fluorophenyl)-1H-indol-5-yl)acrylamide]
1360 | 90 | 79 | C=CC(=O)Nc1cc(-c2cn(C)cn2)c2[nH]c(-c3cc(F)c(Cl)c(F)c3)cc2c1 [Example 46, N-(2-(4-chloro-3,5-difluorophenyl)-7-(1-methyl-1H-imidazol-4-yl)-1H-indol-5-yl)acrylamide]
> 5000 | 100 | 137 | Cn1cnc(-c2cc(C(=O)O)cc3cc(-c4ccc(F)cc4)[nH]c23)c1 [Example 35, 2-(4-fluorophenyl)-7-(1-methyl-1H-imidazol-4-yl)-1H-indole-5-carboxylic acid]
4910 | 51 | 24.3 | C=CC(=O)Nc1cc(-c2ccn(C)n2)c2[nH]c(-c3ccc(F)cc3F)cc2c1 [Example 33, N-(2-(2,4-difluorophenyl)-7-(1-methyl-1H-pyrazol-3-yl)-1H-indol-5-yl)acrylamide]
2080 | 97 | 4.5 | C=CC(=O)Nc1cc(-c2cn(C)cn2)c2[nH]c(-c3cccc(F)c3)cc2c1 [Example 42, N-(2-(3-fluorophenyl)-7-(1-methyl-1H-imidazol-4-yl)-1H-indol-5-yl)acrylamide]
868 | 346 | 58 | C=CC(=O)Nc1cc(-c2cn(C)cn2)c2[nH]c(-c3ccc(Br)cc3)cc2c1 [Example 52, N-(2-(4-bromophenyl)-7-(1-methyl-1H-imidazol-4-yl)-1H-indole-5-yl)acrylamide]
1900 | 37 | 21.7 | C=CC(=O)Nc1cc(-c2cn(C)cn2)c2[nH]c(-c3ccc(F)c(Cl)c3)cc2c1 [Example 44, N-(2-(3-chloro-4-fluorophenyl)-7-(1-methyl-1H-imidazol-4-yl)-1H-indol-5-yl)acrylamide]
759 | 26 | 134 | Cn1cnc(-c2cc(C(=O)O)cc3cc(-c4ccc(Cl)cc4)[nH]c23)c1 [Example 37, 2-(4-chlorophenyl)-7-(1-methyl-1H-imidazol-4-yl)-1H-indole-5-carboxylic acid]
> 5000 | 54 | 7.8 | Cn1cnc(-c2cc(C(=O)O)cc3cc(-c4ccc(F)c(F)c4)[nH]c23)c1 [Example 43, 2-(3,4-difluorophenyl)-7-(1-methyl-1H-imidazol-4-yl)-1H-indole-5-carboxylic acid]

Continued, compound first:

SMILES | IC50 (NCI-H28 cells) [nM] | IC50 [1] [nM] | IC50 (NCI-H226 cells) [nM]
C=CC(=O)Nc1cc(-c2cn(C)cn2)c2[nH]c(-c3ccc(Cl)cc3)cc2c1 [Example 1, N-(2-(4-chlorophenyl)-7-(1-methyl-1H-imidazol-4-yl)-1H-indol-5-yl)acrylamide] | > 5000 | 9.4 | 21
C=CC(=O)Nc1cc(-c2cn(C)cn2)c2[nH]c(-c3ccc(Cl)c(Cl)c3)cc2c1 [Example 8, N-(2-(3,4-dichlorophenyl)-7-(1-methyl-1H-imidazol-4-yl)-1H-indol-5-yl)acrylamide] | 950 | 110 | 57
C=CC(=O)Nc1cc(-c2cn(C)cn2)c2[nH]c(-c3ccccc3)cc2c1 [Example 4, N-(7-(1-methyl-1H-imidazol-4-yl)-2-phenyl-1H-indol-5-yl)acrylamide] | 4400 | 30 | 10
C=CC(=O)Nc1cc(-c2cn(C)cn2)c2[nH]c(-c3ccc(F)c(C)c3)cc2c1 [Example 14, N-(2-(4-fluoro-3-methylphenyl)-7-(1-methyl-1H-imidazol-4-yl)-1H-indol-5-yl)acrylamide] | 2300 | 49 | 25.1
C=CC(=O)Nc1cc(-c2ccccn2)c2[nH]c(-c3ccc(F)cc3)cc2c1 [Example 31, N-(2-(4-fluorophenyl)-7-(pyridin-2-yl)-1H-indol-5-yl)acrylamide] | 1770 | 30 | 12
C=CC(=O)Nc1cc(-c2cn(C)cn2)c2[nH]c(-c3ccc(F)cc3F)cc2c1 [Example 5, N-(2-(2,4-difluorophenyl)-7-(1-methyl-1H-imidazol-4-yl)-1H-indol-5-yl)acrylamide] | > 5000 | 6.4 | 4.2
Cn1cnc(-c2cc(NS(C)(=O)=O)cc3cc(-c4cccc(C(F)(F)F)c4)[nH]c23)c1 [Example 19, N-(7-(1-methyl-1H-imidazol-4-yl)-2-(3-(trifluoromethyl)phenyl)-1H-indol-5-yl)methanesulfonamide] | 438 | 190 | 210
C=CC(=O)Nc1cc(-c2cn(C)cn2)c2[nH]c(-c3ccc(F)cc3)cc2c1 [Example 3, N-(2-(4-fluorophenyl)-7-(1-methyl-1H-imidazol-4-yl)-1H-indol-5-yl)acrylamide] | 1530 | 3.5 | 2.5
C=CC(=O)Nc1cc(-c2cn(C)cn2)c2[nH]c(C3=CCCCC3)cc2c1 [Example 13, N-(2-cyclohexenyl-7-(1-methyl-1H-imidazol-4-yl)-1H-indol-5-yl)acrylamide] | 3500 | 46 | 22.3
C=CC(=O)Nc1cc(-c2cn(C)cn2)c2[nH]c(-c3ccc(C(F)(F)F)cc3)cc2c1 [Example 2, N-(7-(1-methyl-1H-imidazol-4-yl)-2-(4-(trifluoromethyl)phenyl)-1H-indol-5-yl)acrylamide] | 4140 | 39 | 65
C=CC(=O)Nc1cc(-c2cn(C)cn2)c2[nH]c(-c3ccc(F)c(F)c3)cc2c1 [Example 9, N-(2-(3,4-difluorophenyl)-7-(1-methyl-1H-imidazol-4-yl)-1H-indol-5-yl)acrylamide] | 2950 | 20 | 5.3
Cn1cnc(-c2cc(NS(C)(=O)=O)cc3cc(-c4ccc(Cl)cc4)[nH]c23)c1 [Example 21, N-(2-(4-chlorophenyl)-7-(1-methyl-1H-imidazol-4-yl)-1H-indol-5-yl)methanesulfonamide] | 2220 | 236 | > 5000
C=CC(=O)Nc1cc(-c2ccccn2)c2[nH]c(-c3ccc(Cl)c(Cl)c3)cc2c1 [Example 30, N-(2-(3,4-dichlorophenyl)-7-(pyridin-2-yl)-1H-indol-5-yl)acrylamide] | 553 | 126 | 339
C=CC(=O)Nc1cc(-c2ccn(C)n2)c2[nH]c(-c3ccc(Cl)cc3)cc2c1 [Example 28, N-(2-(4-chlorophenyl)-7-(1-methyl-1H-pyrazol-3-yl)-1H-indol-5-yl)acrylamide] | 2300 | 15 | 8.4
C=CC(=O)Nc1cc(-c2cn(C)cn2)c2[nH]c(-c3cc(F)c(F)c(F)c3)cc2c1 [Example 6, N-(7-(1-methyl-1H-imidazol-4-yl)-2-(3,4,5-trifluorophenyl)-1H-indol-5-yl)acrylamide] | 4000 | 5.9 | 4.4
